Test results taken from US20090176950A1, “METAL HYDRIDE COMPLEX, METHOD OF HYD[…]-OPENING POLY[…] OF CYCLOOLEFIN, AND PROCESS FOR PRODUCING PRODUCT OF HYD[…] RING-OPENING POLY[…] OF CYCLOOLEFIN” (JSR CORPORATION, priority 2005, published 2009).

Columns and labels:
[1] = solubility of the metal hydride complex to toluene; format: physicochemical
[2] = hydrogenation of ring-opening polymer with the complex as hydrogenation catalyst (Example 4 procedure); conditions: 0.06 parts complex per 1000 parts polymer solution, hydrogen 100 kg/cm^2, 165° C., 3 hours, 1H-NMR
Method: Into a reaction vessel substituted with nitrogen were charged 250 parts of 8-methyl-8-methoxycarbonyltetracyclo[4.4.0.1^2,5.1^7,10]-3-dodecene, 18 parts of 1-hexene (molecular weight adjusting agent) and 750 parts of toluene and the resulting solution was heated to 80° C. Thereafter, to the solution in the reaction vessel were added 0.62 parts of a toluene solution of triethylaluminum (1.5 mol/L) as a polymerization catalyst and 3.7 parts of a toluene solution (concentration: 0.05 mol/L) of tungsten hexachloride modified with t-butanol and methanol (t-butanol:methanol:tungsten=0.35 mol:0.3 mol:1 mol). The ring-opening copolymerization reaction was carried out by heating and stirring this system at 80° C. for 3 hours to obtain a ring-opening metathesis polymer solution of 8-methyl-8-methoxycarbonyltetracyclo[4.4.0.1^2,5.1^7,10]-3-dodecene. The polymerization conversion rate in this polymerization reaction was 97%.
Into an autoclave was charged 1000 parts of the ring-opening polymer solution obtained above and to this solution was added as a hydrogenation catalyst a toluene solution of 0.5% by weight of the ruthenium hydride complex obtained in Example 1 in an amount (12 parts) so that the amount of added complex was 0.06 parts. The hydrogenation reaction was carried out by heating and stirring for 3 hours under the conditions of a hydrogen gas pressure of 100 kg/cm^2 and a reaction temperature of 165° C. The resulting reaction solution (hydrogenated polymer solution) was cooled and then the hydrogen gas was released. This reaction solution was poured into a large amount of methanol to separate and collect a coagulated substances which was dried to obtain a hydrogenated polymer.

[3] = autoclave hydrogenation of DNM/DCP polymer (Example 9 procedure)
Method: (§1) ^1H-NMR was measured by using AVANCE500 manufactured by BRUKER as a nuclear magnetic resonance spectrometer (NMR) with chloroform-d as a measuring solvent. The composition of a monomer was calculated from the integral value of the vinylene group at 5.1 to 5.8 ppm, the methoxy group at 3.7 ppm and the aliphatic proton at 0.6 to 2.8 ppm, and then the hydrogenation rate was calculated.
Into a reaction vessel substituted with nitrogen were charged 75 parts by weight of 8-methoxycarbonyl-8-methyltetracyclo[4.4.0.1^2,5.1^7,10]-3-dodecene (DNM) and 25 parts by weight of dicyclopentadiene (DCP) as monomers, 6 parts by weight of 1-butene as a molecular weight adjusting agent and 170 parts by weight of toluene, and the resultant mixture was heated to 100° C. To this mixture were added 0.005 parts by weight of triethylaluminum, 0.005 parts by weight of methanol-modified WCl6 (anhydrous methanol:PhPOCl2:WCl6=103:630:427 (weight ratio)), and the reaction was carried out at 100° C. for one hour to obtain a polymer. The conversion was 100%.
Next, into a pressure-proof autoclave with a design temperature of 185° C. and a capacity of 1.25 m^3 were charged a solution of the polymer obtained above equivalent to 350 kg of the solid component and as a hydrogenation catalyst 0.0335 parts by weight of RuH(CO)[P(C6H5)]2(OCO-p-Ph-n-C5H13) of which saturation solubility to toluene at 25° C. is 5% by weight based on 100 parts by weight equivalent to the polymer solid component conversion, and the autoclave was heated to 100° C. Then, hydrogen gas was introduced to the autoclave to increase the pressure to 10 MPa. The maximum attained temperature during the hydrogenation reaction was 179° C. The theoretical value of generated heat was calculated from DNM=129.3 kcal/kg and DCP=452.3 kcal/kg. Thereafter, the reaction was carried out at 165° C. for 3 hours while maintaining the pressure at 10 MPa to obtain a hydrogenated product. […]

[4] = hydrogenation of ring-opening copolymer with the complex as catalyst (Example 8); conditions: 0.06 parts complex, hydrogen 100 kg/cm^2, 165° C., 3 hours
Text: A ring-opening copolymer solution was obtained by carrying out the same polymerization operations as those in Example 4 except that 190 parts of 8-methyl-8-methoxycarbonyltetracyclo[4.4.0.1^2,5.1^7,10]-3-dodecene and 60 parts of spiro[fluorene-9,8′-tricyclo[4.3.0.1^2,5]dec-3-ene were used in place of 250 parts of 8-methyl-8-methoxycarbonyltetracyclo[4.4.0.1^2,5.1^7,10]-3-dodecene. The polymerization conversion rate in this polymerization reaction was 96%.
(§2) Into an autoclave was charged 1000 parts of the ring-opening copolymer solution thus obtained and to the ring-opening polymer solution was added a toluene solution of 1.0% by weight of the ruthenium hydride complex obtained in Example 2 in an amount (6 parts) so that the amount of added complex was 0.06 parts. The hydrogenation reaction was carried out by heating and stirring for 3 hours under the conditions of a hydrogen gas pressure of 100 kg/cm^2 and a reaction temperature of 165° C. The resulting reaction solution (hydrogenated polymer solution) was cooled and then the hydrogen gas was released. […] This polymer was analyzed by ^1H-NMR and the hydrogenation rate was determined by the ratio of the integral value of the saturated hydrocarbons at 0.6 to 2.5 ppm to the integral value of the unsaturated hydrocarbons at 5.0 to 5.6 ppm.

[5] = autoclave hydrogenation of DNM/DCP/NB polymer (Example 10 procedure); conditions: gelation inhibitor
Method: as §1
A hydrogenated product was obtained in the same way as Example 1 except that in Example 9, there were charged 65 parts by weight of 8-methoxycarbonyl-8-methyltetracyclo[4.4.0.1^2,5.1^7,10]-3-dodecene (DNM), 25 parts by weight of dicyclopentadiene (DCP) and 10 parts by weight of norbornene (NB) as monomers and 190 parts by weight of toluene to synthesize a polymer, and the charged amount equivalent to the solid component of the polymer was changed to 330 kg in the hydrogenation reaction. […] The maximum attained temperature during the hydrogenation reaction was 179° C. The theoretical value of generated heat was calculated from DNM=129.3 kcal/kg, DCP=452.3 kcal/kg and NB=319.3 kcal/kg.

[6] = hydrogenation of ring-opening copolymer with the complex as catalyst (Example 7); conditions: 0.06 parts complex, hydrogen 100 kg/cm^2, 165° C., 3 hours
Text: A ring-opening polymer solution was obtained by carrying out the same polymerization operations as those in Example 4 except that 187.5 parts of 8-methyl-8-methoxycarbonyltetracyclo[4.4.0.1^2,5.1^7,10]-3-dodecene and 62.5 parts of tricyclo[4.3.0.1^2,5]deca-3,8-diene were used in place of 250 parts of 8-methyl-8-methoxycarbonyltetracyclo[4.4.0.1^2,5.1^7,10]-3-dodecene. The polymerization conversion rate of this polymerization reaction was 98%.
as §2, with “ring-opening copolymer” for “ring-opening polymer”, “conditions including” for “conditions of”

[7] = hydrogen introduced at 100° C., 10 MPa, 165° C. for 3 hours

RuH(OCOPh)(CO)(PPh3)2 [Example 1]
solubility to toluene at 20° C. [1]: 0.5 % by weight | hydrogenation rate of the hydrogenated polymer [2]: 99.99%

RuH(OCOPh-C8H17)(CO)(PPh3)2 [Example 3]
solubility to toluene at 20° C. [1]: 5.0 % by weight | hydrogenation rate of the hydrogenated polymer [2]: 99.90%

RuH(CO)[P(C6H5)]2(OCO-p-Ph-n-C5H13)
saturation solubility to toluene at 25° C. [1]: 5 % by weight | olefinic unsaturated bonds in the main chain hydrogenated (hydrogenation rate) [3, 7]: ≥ 99.9%

[C-]#[O+].[Cl][RuH].c1ccc(P(c2ccccc2)c2ccccc2)cc1.c1ccc(P(c2ccccc2)c2ccccc2)cc1.c1ccc(P(c2ccccc2)c2ccccc2)cc1 [RuHCl(CO)(PPh3)3, reference compound]
solubility to toluene at 20° C. [1]: 0.03 % by weight | saturation solubility to toluene at 25° C. [1]: 0.05 % by weight | saturation solubility to toluene ([1]; temperature not given): 0.05 % by weight | olefinic unsaturated bonds in the main chain hydrogenated (hydrogenation rate) [3, 7]: ≥ 99.9% | olefinic unsaturated bonds in the main chain hydrogenated (hydrogenation rate) ([3]; hydrogen introduction temperature 150° C., 600 parts toluene, gelation inhibitor): ≥ 99.9% | hydrogenation rate of the hydrogenated polymer [2]: 99.75% | hydrogenation rate of the main chain of the copolymer [4]: 99.30% | olefinic unsaturated bonds in the main chain hydrogenated (hydrogenation rate) ([5]; hydrogen introduction temperature 100° C.): ≥ 99.9% | olefinic unsaturated bonds in the main chain hydrogenated (hydrogenation rate) ([5]; hydrogen introduction temperature 150° C., 700 parts toluene): ≥ 99.9%

RuH(OCOPh-C5H11)(CO)(PPh3)2 [Example 2]
hydrogenation rate of the main chain of the copolymer [6]: 99.97% | hydrogenation rate of the unsaturated double bonds derived from the side chain of tricyclo[4.3.0.1^2,5]deca-3,8-diene [6]: ≥ 99.99% | solubility to toluene at 20° C. [1]: 1.0 % by weight | hydrogenation rate of the hydrogenated polymer [2]: 99.95% | hydrogenation rate of the main chain of the copolymer [4]: 99.93%
